Measurements published in patent publication US10660967B2, “Curcumin conjugates and methods of use thereof” (priority 2016, dated 2020).
Like-named read-outs stand apart in the source and are kept apart here.

What was measured:
[1] = system: Streptococcus pyogenes ATCC19615; assay: Antimicrobial MIC, agar dilution
[2] = system: Candida albicans (local isolate); assay: Antimicrobial MIC, agar dilution; details: Candida albicans, read-out: Minimum inhibitory concentration (MIC)
[3] = system: Staphylococcus aureus ATCC25923; assay: Antimicrobial MIC, agar dilution
[4] = system: PHA-stimulated splenocytes; assay: Proliferative response of PHA-stimulated splenocytes (MTT assay); type: cell-based; details: PHA 5 μg/ml, 72 hr; compounds at 5 μM (method says 10 μM); ratio of O.D. versus vehicle control
Method in brief: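 Freshly prepared splenocytes (1×10^6 cells/well) were cultured for 72 h at 37° C with compound at 10 μM final, with or without PHA (5 μg/ml). Viability was read by MTT (4 h), with absorbance at 570 nm against 690 nm reference. Stimulation index is the OD ratio of treated versus vehicle cultures.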

[5] = system: lipopolysaccharide-stimulated peritoneal macrophages; assay: Production of nitric oxide by lipopolysaccharide-stimulated peritoneal macrophages (Greiss reagent); type: cell-based; design: Potency (%): % inhibition of nitric oxide production relative to lipopolysaccharide-stimulated macrophages: concentration or dose not given beside the values; details: LPS-stimulated peritoneal macrophages; for Nitric oxide (nitrite) concentration, μM (average ± SD): 24 h, nitrite by Greiss reagent
Method in brief: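 Macrophages in nitrite-free medium with 0.1% BSA were stimulated with LPS at 0.5–10 ng/ml, some wells also receiving epinephrine, norepinephrine or dopamine at […], for 24 h at 37° C. Nitrite in supernatants was measured with Greiss reagent, 15 min at room temperature, absorbance 532 nm.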

[6] = system: Salmonella typhi ATCC19430; assay: Antimicrobial MIC, agar dilution; type: cell-based; details: Salmonella enterica, read-out: Minimum inhibitory concentration (MIC)
gastric mucosa = assay: Ulcerogenic liability (ulcer index); type: in vivo, albino mice
Experimental: The ulcerogenic liability was investigated in albino mice using the standard method. […] The animals were fasted 18 h before drug administration. […] The control group animals were given saline solution only with few drops of Tween 80. […] The gastric mucosa was examined with a magnifying lens (10×) for the presence of lesions and erosions.
1. percentage incidence of ulcer divided by 10;
2. average number of ulcers per stomach; and
3. average severity of ulcers;

[7] = system: Pseudomonas aeruginosa ATCC27853; assay: Antimicrobial MIC, agar dilution
[8] = system: MCF7 (breast) carcinoma cell line; assay: Anti-tumor properties, MTT; type: cell-based; details: Homo sapiens; for activity at 100 µM: read-out: Percentage growth of tumor cell lines treated with the tested compounds (±SD)
Method in brief: (§1)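 Cells seeded at 10×10^3 per well for 24 h, then exposed to compound in serum-free medium (final up to 100 μM, 0.5% DMSO vehicle) for 72 h in triplicate. Viability by MTT reduction (4 h, SDS solubilised), absorbance 595 nm/ref 620 nm; IC50 from survival curves.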

[9] = system: HCT116 (colon) carcinoma cell line; assay: Anti-tumor properties, MTT; type: cell-based; details: Homo sapiens, read-out: Percentage growth of tumor cell lines treated with the tested compounds (±SD)
Method in brief: as §1

[10] = system: HepG2 (hepatocellular) carcinoma cell line; assay: Anti-tumor properties, MTT; type: cell-based; details: Homo sapiens; for activity at 100 µM: read-out: Percentage growth of tumor cell lines treated with the tested compounds (±SD)
Method in brief: as §1

MCF-7 cells = assay: Effect on doxorubicin induced cytotoxicity (MTT); details: for viability at 100 µM: Homo sapiens, MCF7, 48 h; for Percentage of viable cells MCF-7 (average ± SD): 10 μM DOX in combination with 100 μM curcumin derivative
Method in brief: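 MCF-7 cells were exposed for 48 hr to 100 μM curcumin derivative alone or combined with 10 μM doxorubicin. Controls got medium, DMSO vehicle, or vehicle+doxorubicin. Percent viable cells was read by MTT assay.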

[11] = ATCC19615, 18 h, read-out: Minimum inhibitory concentration (MIC)
[12] = ATCC19615, read-out: Minimum inhibitory concentration (MIC)
[13] = ATCC25923, 18 h, read-out: Minimum inhibitory concentration (MIC)
[14] = ATCC25923, read-out: Minimum inhibitory concentration (MIC)
[15] = both, albino, mouse, in vivo, po, 10 mg/kg, 3 days
[16] = ATCC27853, 18 h, read-out: Minimum inhibitory concentration (MIC)
[17] = ATCC27853, read-out: Minimum inhibitory concentration (MIC)
[18] = orally, three successive days, 10 mg/kg indomethacin mol equivalent
[19] = orally, three successive days, 10 mg/kg indomethacin mol equivalent, 6 animals per group
[20] = sum of the three values, orally, three successive days, 10 mg/kg indomethacin mol equivalent
[21] = read-out: Percentage of viable cells MCF-7 (average ± SD)

Row | Structure (SMILES) | MIC [1, 11] | MIC [1, 12] | MIC ([2]; 18 h) | MIC [2] | MIC [3, 13] | MIC [3, 14] | Stimulation Index (average ± SD) [4] | Potency (%): % inhibition of nitric oxide production relative to lipopolysaccharide-stimulated macrophages [5] | Nitric oxide (nitrite) concentration, μM (average ± SD) [5] | MIC ([6]; 18 h) | MIC [6] | MIC [7, 16] | MIC [7, 17] | % Incidence of ulcer divided by 10 (gastric mucosa; [18]) | Average of ulcer number (gastric mucosa; [18]) | Average severity of ulcer (gastric mucosa; [18]) | Number of animals with ulcer (gastric mucosa; [19]) | Ulcer index (gastric mucosa; [20]) | activity at 100 µM ([8]; MCF7, 100 μM, 72 h) | activity at 100 µM ([9]; HCT-116, HCT116, 100 μM, 72 h) | also measured
1 | COc1cc(/C=C/C(=O)CC(=O)/C=C/c2ccc(O)c(OC)c2)ccc1O [Curcumin, (1E,6E)-1,7-bis(4-hydroxy-3-methoxyphenyl)hepta-1,6-diene-3,5-dione] | 0.125 µg/mL | 0.339 µM | 0.125 µg/mL | 0.339 µM | 0.125 µg/mL | 0.339 µM | 1.52 ± 0.10 | 37.11% | 17.18 ± 0.65 µM | 0.125 µg/mL | 0.339 µM | 0.125 µg/mL | 0.339 µM | – | – | – | – | – | – | – | % Incidence of ulcer divided by 10 (gastric mucosa; [15]): 3.33; Average of ulcer number (gastric mucosa; [15]): 0.33; Average severity of ulcer (gastric mucosa; [15]): 0.33; Number of animals with ulcer (gastric mucosa; [15]): 2/6; Ulcer index (gastric mucosa; [15]): 3.99; IC50 ([8]; MCF7, 72 h): 16 µM; activity at 100 µM ([8]; MCF7, 72 h): 4.6 ± 0.2%; activity at 100 µM ([9]; HCT-116, 72 h): 2.4 ± 3.4%; IC50 ([10]; HepG2, 72 h): 38 µM; activity at 100 µM ([10]; HepG2, 72 h): 0.4%; viability at 100 µM (MCF-7 cells; read-out: Percentage of viable cells MCF-7 (average ± SD), 0 μM DOX, 100 μM curcumin derivative alone, 48 hr): 10.8 ± 4.7%; viability at 100 µM (MCF-7 cells; read-out: Percentage of viable cells MCF-7 (average ± SD), 10 μM DOX in combination with 100 μM curcumin derivative, 48 hr): 3.16 ± 1.62%
2 | COc1cc(/C=C/C(=O)CC(=O)/C=C/c2ccc(OC(=O)[C@H](CCSC)NC(=O)OCC3c4ccccc4-c4ccccc43)c(OC)c2)ccc1OC(=O)[C@H](CCSC)NC(=O)OCC1c2ccccc2-c2ccccc21 [Fmoc-Met-Cur, ((1E,6E)-3,5-dioxohepta-1,6-diene-1,7-diyl)bis(2-methoxy-4,1-phenylene) (2S,2′S)-bis(2-((((9H-fluoren-9-yl)methoxy)carbonyl)amino)-4-(methylthio)butanoate)] | 0.125 µg/mL | 0.116 µM | 0.5 µg/mL | 0.465 µM | 0.25 µg/mL | 0.233 µM | 1.07 ± 0.16 | 47.91% | 14.23 ± 1.05 µM | 2 µg/mL | 1.86 µM | 2 µg/mL | 1.86 µM | 0 | 0 | 0 | 0/6 | 0 | 88.9 ± 5% | 96.4 ± 1.4% | activity at 100 µM ([10]; HepG2, 100 μM, 72 h): 92.4 ± 5.1%; Percentage of viable cells MCF-7 (average ± SD) (MCF-7 cells; 48 hr): 38.75 ± 1.65; viability at 100 µM (MCF-7 cells; [21]): 99.3 ± 3.16%
3 | COc1cc(/C=C/C(=O)CC(=O)/C=C/c2ccc(OC(=O)CNC(=O)OCC3c4ccccc4-c4ccccc43)c(OC)c2)ccc1OC(=O)CNC(=O)OCC1c2ccccc2-c2ccccc21 [Fmoc-Gly-Cur, ((1E,6E)-3,5-dioxohepta-1,6-diene-1,7-diyl)bis(2-methoxy-4,1-phenylene) bis(2-((((9H-fluoren-9-yl)methoxy)carbonyl)amino)acetate)] | 1 µg/mL | 1.08 µM | 2 µg/mL | 2.16 µM | 1 µg/mL | 1.08 µM | 1.76 ± 0.20 | 31.43% | 18.73 ± 1.29 µM | 1 µg/mL | 1.08 µM | 1 µg/mL | 1.08 µM | 0 | 0 | 0 | 0/6 | 0 | 87 ± 1.5% | 95.8 ± 6.7% | activity at 100 µM ([10]; HepG2, 100 μM, 72 h): 82.1 ± 7%; Percentage of viable cells MCF-7 (average ± SD) (MCF-7 cells; 48 hr): 30.35; viability at 100 µM (MCF-7 cells; [21]): 98.4 ± 1.46%
4 | COc1cc(/C=C/C(=O)CC(=O)/C=C/c2ccc(OC(=O)[C@H](CCSC)NC(=O)OCc3ccccc3)c(OC)c2)ccc1OC(=O)[C@H](CCSC)NC(=O)OCc1ccccc1 [Cbz-Met-Cur, ((1E,6E)-3,5-dioxohepta-1,6-diene-1,7-diyl)bis(2-methoxy-4,1-phenylene) (2S,2′S)-bis(2-(((benzyloxy)carbonyl)amino)-4-(methylthio)butanoate)] | 0.125 µg/mL | 0.139 µM | 2 µg/mL | 2.23 µM | 0.125 µg/mL | 0.139 µM | 1.22 ± 0.29 | 44.44% | 15.17 ± 2.30 µM | 0.125 µg/mL | 0.139 µM | 0.125 µg/mL | 0.139 µM | 3.33 | 0.33 | 0.33 | 2/6 | 3.99 | 71% | 85.6 ± 2.4% | activity at 100 µM ([10]; HepG2, 100 μM, 72 h): 85.4 ± 2.4%; Percentage of viable cells MCF-7 (average ± SD) (MCF-7 cells; 48 hr): 49.74 ± 0.33; viability at 100 µM (MCF-7 cells; [21]): 96.3 ± 3.61%
